In the supplement of paper PMC10307832 one finds relative viability data, which are given here for one cell line.

What all share (assay): relative viability (nuclei count vs DMSO), 5 days (fraction); higher = more cells survive
Compound in the assay “Trametinib + Linsitinib”: CC(=O)Nc1cccc(-n2c(=O)n(C3CC3)c(=O)c3c(Nc4ccc(I)cc4F)n(C)c(=O)c(C)c32)c1 [Trametinib] + C[C@]1(O)C[C@@H](c2nc(-c3ccc4ccc(-c5ccccc5)nc4c3)c3c(N)nccn32)C1 [Linsitinib] (partner 1 µM)
Put shortly: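 Lung cancer cell lines in 1536-well plates were dosed by pin tool the day after seeding, either with one drug alone or with a fixed anchor-drug dose plus five library-drug doses (not always all listed) in √10 steps. After 5 days, cells were fixed and their nuclei stained in one step (final 0.05% Triton X-100, 1% formaldehyde, 1 ug/ml Hoechst), then counted on 4× images. Relative viability is the nuclei count in treated wells divided by that in vehicle wells. Values are medians of duplicate plates.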

Compound in a further assay: CC(=O)Nc1cccc(-n2c(=O)n(C3CC3)c(=O)c3c(Nc4ccc(I)cc4F)n(C)c(=O)c(C)c32)c1 [Trametinib]
Put shortly:
(§1)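 Lung cancer cell lines in 1536-well plates were exposed by pinning to five library-drug doses (not always all listed) √10 apart, following an overnight hold at 37 °C. MetaXpress counted Hoechst-stained nuclei from 4× images taken after 5 days without medium change. Viability is the median ratio of treated-well to vehicle-well nuclei across plates. Plates required control CV below 25% and at least one doubling.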

Compound in assay [1]: CN1C=C(C2=CC=CC=C21)/C=C\3/C4=C(C=CC=N4)NC3=O
In outline: as §1

With UMC-11, the relative viability in the assay with Trametinib + Linsitinib (first compound 0.0025 µM) was 1.01; with Trametinib + Linsitinib (first compound 0.007906 µM) it was 1.04; with Trametinib + Linsitinib (first compound 0.025 µM), 0.929; with Trametinib + Linsitinib (first compound 0.07906 µM) it was 1.07; with Trametinib + Linsitinib (first compound 0.25 µM) it was 0.974; with Trametinib (0.0025 µM), 0.931. Besides, the relative viability in the assay with Trametinib (0.007906 µM) amounted to 1.03; with Trametinib (0.02 µM, anchor plate), 0.722; with Trametinib (0.025 µM), 0.658; with Trametinib (0.07906 µM), 0.92; with Trametinib (0.25 µM) it was 0.985; in assay [1] (0.02 µM) it was 0.876. The relative viability stood at 0.884 in assay [1] (0.06325 µM), 0.771 in assay [1] (0.2 µM), 0.968 in assay [1] (0.6325 µM) and 1.17 in assay [1] (2 µM).
